According to PubChem BioAssay (NCI):
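Briefly, cells in 96-well plates were exposed to five compound concentrations for 48 h, and endpoints were estimated by linear interpolation. Here, GI50 denotes the concentration required for 50% inhibition of growth. TGI marks complete inhibition of growth.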

How the values were obtained:
Assay in all cases: DTP human tumour cell line panel, 48 h
A549 NSCLC = system: A549 NSCLC
MCF7 breast = system: MCF7 breast
OVCAR-4 ovarian = system: OVCAR-4 ovarian
OVCAR-5 ovarian = system: OVCAR-5 ovarian
A498 renal = system: A498 renal
KM12 colon = system: KM12 colon
NCI-H23 lung = system: NCI-H23 lung
UACC-62 melanoma = system: UACC-62 melanoma
RPMI-8226 leukemia = system: RPMI-8226 leukemia
NCI-H460 lung = system: NCI-H460 lung

Structure (SMILES)	GI50 (A549 NSCLC) [µM]	TGI (A549 NSCLC) [µM]	GI50 (MCF7 breast) [µM]	TGI (MCF7 breast) [µM]	GI50 (OVCAR-4 ovarian) [µM]	TGI (OVCAR-4 ovarian) [µM]	GI50 (OVCAR-5 ovarian) [µM]	TGI (OVCAR-5 ovarian) [µM]	GI50 (A498 renal) [µM]	TGI (A498 renal) [µM]	GI50 (KM12 colon) [µM]	TGI (KM12 colon) [µM]	GI50 (NCI-H23 lung) [µM]	TGI (NCI-H23 lung) [µM]	GI50 (UACC-62 melanoma) [µM]	TGI (UACC-62 melanoma) [µM]	GI50 (RPMI-8226 leukemia) [µM]	TGI (RPMI-8226 leukemia) [µM]	GI50 (NCI-H460 lung) [µM]	TGI (NCI-H460 lung) [µM]
COc1cc(C(=O)NC2CCN(C)CC2)c(F)cc1Nc1ncc2c(n1)N(C1CCCC1)CC(F)(F)C(=O)N2C	< 0.0184	2.31	< 0.01	11.9	0.396	14.1	< 0.0191	14.3	< 0.0196	0.14	< 0.01	14	< 0.0182	3.4	< 0.0237	13.7	< 0.022	3.26	< 0.0168	12.4
Cc1ccc(CNc2c3ccccc3nc3cc(NC(=O)CCN4CCCC4)ccc23)cc1			0.453	1.77	0.569	2.02	0.793	2.1	1.13	2.38	0.534	1.79	0.518	1.81	1.4	2.74	0.412	1.94	0.365	1.25
C=C1C(=O)OC2C1C(OC(=O)/C(C)=C/C)CC(O)(CCl)C1C(O)C3OC3(C)C21O (stereo not drawn)		> 50		> 50		> 50		> 50		> 50		> 50		> 50		> 50		> 50		> 50
COc1ccc(/C=C2\CCCC3=C2NC(N)=NC3c2ccc(OC)c(OC)c2)cc1OC (stereo not drawn)	33.2	> 100	1.89	> 100	5.2	> 100	> 54.5	> 100	13.1	> 82.6	6.87	> 100	7.33	> 100	10.9	> 100	0.837	15.4	25.2	> 100
CCOc1ccccc1N=Nc1c(C)[nH]n(-c2nc(-c3ccccc3)cs2)c1=O	49.9	> 100	12.4	> 100	25	> 84.5	> 100	> 100	23.5	> 100	> 100	> 100	> 74.1	> 100	35.6	> 100	> 100	> 100	37.5	> 100
O=C(COc1ccc(/C=C2\Oc3ccccc3C2=O)cc1)Nc1nc2c(s1)CCCC2	3.09	33	15.8	> 100	13.1	> 100	51.2	> 100	30.6	98.2	0.403	27.5	11.9	> 100	23.2	> 100	0.261	1.12	30.3	> 100
CC1(C)[C@@H](OC(N)=O)[C@H]2O[C@H]2[C@]2(CO)[C@H]3CC[C@]4(C)[C@@H](c5ccc(=O)oc5)[C@@H](Cl)C[C@]4(O)C3=CC[C@@H]12	0.00469	0.0088	0.00745	0.0512	0.00545	0.0157	0.00821	0.0342	0.0144	0.0748	0.0107	0.0445	0.00552	0.0152	0.00892	0.0332	< 0.011	0.126	0.00468	0.00997
COc1c2c(nc3ccccc13)-c1cc3c(c(=O)n1C2)COC(=O)C3(O)CC(=O)N1CCOCC1 (stereo not drawn)		> 92.4		> 44.4		> 100		63.1		46.4		57.5		8.05		8.35		82		30.9
CN1CC[C@@H](c2c(O)cc(O)c3c(=O)cc(-c4ccccc4Cl)oc23)[C@@H]1CO	0.368	> 10	0.241	> 10	0.709	> 9.29	0.287	> 10	0.215	0.553	0.254	> 9	0.288	3.03	0.184	0.578	0.362	2.73	0.318	> 10
O=C(NN1C(=O)CSC12CCCC2)c1[nH]c2ccc(Br)cc2c1-c1ccccc1	35.5	> 100	37.2	> 100	24.7	> 100	> 100	> 100	> 100	> 100	28.5	> 100	41.1	> 100	19.7	> 100	30.2	86.5	46.9	> 100
